Measurements as given in patent publication US6589549B2, “Bioactive agent delivering system comprised of microparticles within a biodegradable to improve release profiles” (Macromed, Incorporated, priority 2000, dated 2003).

Conditions: in the presence of the block copolymer

chemical stability in the aqueous polymer composition relative to aqueous solutions with organic co-solvents: substantially stabilized
SMILES: CC(=O)O[C@H]1C(=O)[C@@]2(C)[C@H]([C@H](OC(=O)c3ccccc3)[C@]3(O)C[C@H](OC(=O)[C@H](O)[C@@H](NC(=O)c4ccccc4)c4ccccc4)C(C)=C1C3(C)C)[C@]1(OC(C)=O)CO[C@@H]1C[C@@H]2O [paclitaxel]
